Test results from PubChem BioAssay (NCI).
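1) Cells in 96-well plates. 2) Compound, 48 h, 5 concentrations. 3) Linear interpolation between surrounding doses. 4) Unreached endpoint = highest concentration. TGI: total growth inhibition.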

Tests used:
Assay in all cases: NCI tumour cell line growth inhibition, 48 h
UACC-257 melanoma = tested on: UACC-257 melanoma
OVCAR-5 ovarian = tested on: OVCAR-5 ovarian
RXF 393 renal = tested on: RXF 393 renal
IGROV1 ovarian = tested on: IGROV1 ovarian
M14 melanoma = tested on: M14 melanoma
NCI-H460 lung = tested on: NCI-H460 lung
TK-10 renal = tested on: TK-10 renal
K-562 leukemia = tested on: K-562 leukemia
NCI/ADR-RES ovarian = tested on: NCI/ADR-RES ovarian
A498 renal = tested on: A498 renal
MALME-3M melanoma = tested on: MALME-3M melanoma
CAKI-1 renal = tested on: CAKI-1 renal
OVCAR-3 ovarian = tested on: OVCAR-3 ovarian
HCC-2998 colon = tested on: HCC-2998 colon
EKVX NSCLC = tested on: EKVX NSCLC
NCI-H226 lung = tested on: NCI-H226 lung
PC-3 prostate = tested on: PC-3 prostate
RPMI-8226 leukemia = tested on: RPMI-8226 leukemia
786-0 renal = tested on: 786-0 renal
UACC-62 melanoma = tested on: UACC-62 melanoma
SF-268 CNS = tested on: SF-268 CNS
SK-MEL-2 melanoma = tested on: SK-MEL-2 melanoma
KM12 colon = tested on: KM12 colon
SF-295 CNS = tested on: SF-295 CNS
HCT-15 colon = tested on: HCT-15 colon
CCRF-CEM leukemia = tested on: CCRF-CEM leukemia
NCI-H522 lung = tested on: NCI-H522 lung
OVCAR-8 ovarian = tested on: OVCAR-8 ovarian
SK-MEL-28 melanoma = tested on: SK-MEL-28 melanoma
HT29 colon = tested on: HT29 colon
A549 NSCLC = tested on: A549 NSCLC
HCT-116 colon = tested on: HCT-116 colon
SR leukemia = tested on: SR leukemia
UO-31 renal = tested on: UO-31 renal
SK-MEL-5 melanoma = tested on: SK-MEL-5 melanoma
HL-60(TB) leukemia = tested on: HL-60(TB) leukemia
U251 CNS = tested on: U251 CNS
MDA-MB-231 breast = tested on: MDA-MB-231 breast
MCF7 breast = tested on: MCF7 breast
SF-539 CNS = tested on: SF-539 CNS
OVCAR-4 ovarian = tested on: OVCAR-4 ovarian
COLO 205 colon = tested on: COLO 205 colon
ACHN renal = tested on: ACHN renal
NCI-H23 lung = tested on: NCI-H23 lung
HOP-62 NSCLC = tested on: HOP-62 NSCLC
LOX IMVI melanoma = tested on: LOX IMVI melanoma
DU-145 prostate = tested on: DU-145 prostate
SW-620 colon = tested on: SW-620 colon
SNB-75 CNS = tested on: SNB-75 CNS
HOP-92 NSCLC = tested on: HOP-92 NSCLC
HS 578T breast = tested on: HS 578T breast
T-47D breast = tested on: T-47D breast
MDA-MB-435 = tested on: MDA-MB-435
SNB-19 CNS = tested on: SNB-19 CNS
MDA-N = tested on: MDA-N
SK-OV-3 ovarian = tested on: SK-OV-3 ovarian
MOLT-4 leukemia = tested on: MOLT-4 leukemia
SN12C renal = tested on: SN12C renal

Measured: TGI

N#Cc1nc(-c2ccccc2C(=O)O)oc1N
> 100 µM: UACC-257 melanoma | OVCAR-5 ovarian | RXF 393 renal | IGROV1 ovarian | M14 melanoma | NCI-H460 lung | TK-10 renal | K-562 leukemia | NCI/ADR-RES ovarian | A498 renal | MALME-3M melanoma | CAKI-1 renal | OVCAR-3 ovarian | HCC-2998 colon | EKVX NSCLC | NCI-H226 lung | PC-3 prostate | RPMI-8226 leukemia | 786-0 renal | UACC-62 melanoma | SF-268 CNS | SK-MEL-2 melanoma | KM12 colon | SF-295 CNS | HCT-15 colon | CCRF-CEM leukemia | NCI-H522 lung | OVCAR-8 ovarian | SK-MEL-28 melanoma | HT29 colon | A549 NSCLC | HCT-116 colon | SR leukemia | UO-31 renal | SK-MEL-5 melanoma | HL-60(TB) leukemia | U251 CNS | MDA-MB-231 breast | MCF7 breast | SF-539 CNS | OVCAR-4 ovarian | COLO 205 colon | ACHN renal | NCI-H23 lung | HOP-62 NSCLC | LOX IMVI melanoma | DU-145 prostate | SW-620 colon | SNB-75 CNS | HOP-92 NSCLC | HS 578T breast | T-47D breast | MDA-MB-435 | SNB-19 CNS | MDA-N | SK-OV-3 ovarian | MOLT-4 leukemia | SN12C renal

Cc1cc(C23OC4COC(C)(C)OC4C2OC(C)(C)O3)nc2ccccc12 (centres undefined)
> 100 µM: UACC-257 melanoma | OVCAR-5 ovarian | RXF 393 renal | IGROV1 ovarian | M14 melanoma | NCI-H460 lung | TK-10 renal | K-562 leukemia | NCI/ADR-RES ovarian | MALME-3M melanoma | OVCAR-3 ovarian | HCC-2998 colon | EKVX NSCLC | NCI-H226 lung | PC-3 prostate | RPMI-8226 leukemia | 786-0 renal | UACC-62 melanoma | SF-268 CNS | SK-MEL-2 melanoma | KM12 colon | SF-295 CNS | HCT-15 colon | CCRF-CEM leukemia | NCI-H522 lung | OVCAR-8 ovarian | SK-MEL-28 melanoma | HT29 colon | A549 NSCLC | HCT-116 colon | SR leukemia | UO-31 renal | SK-MEL-5 melanoma | HL-60(TB) leukemia | U251 CNS | MDA-MB-231 breast | MCF7 breast | SF-539 CNS | OVCAR-4 ovarian | COLO 205 colon | ACHN renal | NCI-H23 lung | HOP-62 NSCLC | LOX IMVI melanoma | DU-145 prostate | SW-620 colon | SNB-75 CNS | HOP-92 NSCLC | HS 578T breast | T-47D breast | MDA-MB-435 | SNB-19 CNS | MDA-N | SK-OV-3 ovarian | MOLT-4 leukemia | SN12C renal
